{
  "source": "patent EP3009422A1",
  "about": "“Photo-switchable sulfonylureas and their uses” (Ludwig-Maximilians-Universität München, priority 2014, dated 2016)",
  "key": {"KATP channels": {"target": "T1, KATP channels (Rattus norvegicus, UniProt Q09429)", "T1 construct": "expressed in transfected cells; host or cells: HEK293t (Leibniz-Institut DSMZ: #305)", "T1 sequence (Q09429 whole entry)": "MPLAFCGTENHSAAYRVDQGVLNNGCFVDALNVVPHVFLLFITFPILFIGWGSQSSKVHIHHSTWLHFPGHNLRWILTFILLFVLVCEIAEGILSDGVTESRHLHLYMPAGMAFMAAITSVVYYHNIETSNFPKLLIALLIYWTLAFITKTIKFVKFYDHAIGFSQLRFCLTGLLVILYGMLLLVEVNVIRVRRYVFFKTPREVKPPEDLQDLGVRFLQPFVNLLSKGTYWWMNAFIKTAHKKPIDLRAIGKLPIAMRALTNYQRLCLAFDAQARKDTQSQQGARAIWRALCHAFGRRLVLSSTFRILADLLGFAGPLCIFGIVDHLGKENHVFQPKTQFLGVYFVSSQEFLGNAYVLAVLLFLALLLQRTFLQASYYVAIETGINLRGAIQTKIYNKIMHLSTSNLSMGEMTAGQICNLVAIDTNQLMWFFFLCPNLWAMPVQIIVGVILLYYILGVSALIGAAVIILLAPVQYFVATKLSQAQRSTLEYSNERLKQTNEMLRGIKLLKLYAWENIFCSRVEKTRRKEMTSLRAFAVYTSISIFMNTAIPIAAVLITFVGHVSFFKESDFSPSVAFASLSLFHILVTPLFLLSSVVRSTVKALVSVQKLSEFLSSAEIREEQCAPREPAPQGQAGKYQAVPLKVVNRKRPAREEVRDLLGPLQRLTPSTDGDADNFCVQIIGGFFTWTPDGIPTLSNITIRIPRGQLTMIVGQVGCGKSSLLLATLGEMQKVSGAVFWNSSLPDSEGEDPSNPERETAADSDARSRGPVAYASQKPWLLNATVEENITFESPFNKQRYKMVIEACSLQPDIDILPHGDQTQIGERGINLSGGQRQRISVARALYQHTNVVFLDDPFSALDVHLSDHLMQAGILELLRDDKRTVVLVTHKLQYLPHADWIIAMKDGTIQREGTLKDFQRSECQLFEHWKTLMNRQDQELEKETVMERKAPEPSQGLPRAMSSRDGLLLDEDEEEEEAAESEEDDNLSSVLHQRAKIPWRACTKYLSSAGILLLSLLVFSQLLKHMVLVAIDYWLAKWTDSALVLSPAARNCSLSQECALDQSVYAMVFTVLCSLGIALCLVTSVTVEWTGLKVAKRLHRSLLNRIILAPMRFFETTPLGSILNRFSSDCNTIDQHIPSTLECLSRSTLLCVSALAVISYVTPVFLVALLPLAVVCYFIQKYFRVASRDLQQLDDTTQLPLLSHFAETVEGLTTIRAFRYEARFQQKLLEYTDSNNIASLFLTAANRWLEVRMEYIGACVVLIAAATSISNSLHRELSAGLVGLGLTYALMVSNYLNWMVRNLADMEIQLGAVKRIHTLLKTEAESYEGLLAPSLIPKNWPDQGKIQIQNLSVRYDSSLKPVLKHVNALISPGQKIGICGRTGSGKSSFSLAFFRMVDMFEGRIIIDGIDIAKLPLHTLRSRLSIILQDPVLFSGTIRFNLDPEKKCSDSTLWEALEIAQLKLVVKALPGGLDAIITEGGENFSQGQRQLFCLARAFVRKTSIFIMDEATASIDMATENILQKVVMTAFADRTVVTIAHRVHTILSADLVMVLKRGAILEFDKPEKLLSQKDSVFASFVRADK", "T1 sequence (Q61743 whole entry partner)": "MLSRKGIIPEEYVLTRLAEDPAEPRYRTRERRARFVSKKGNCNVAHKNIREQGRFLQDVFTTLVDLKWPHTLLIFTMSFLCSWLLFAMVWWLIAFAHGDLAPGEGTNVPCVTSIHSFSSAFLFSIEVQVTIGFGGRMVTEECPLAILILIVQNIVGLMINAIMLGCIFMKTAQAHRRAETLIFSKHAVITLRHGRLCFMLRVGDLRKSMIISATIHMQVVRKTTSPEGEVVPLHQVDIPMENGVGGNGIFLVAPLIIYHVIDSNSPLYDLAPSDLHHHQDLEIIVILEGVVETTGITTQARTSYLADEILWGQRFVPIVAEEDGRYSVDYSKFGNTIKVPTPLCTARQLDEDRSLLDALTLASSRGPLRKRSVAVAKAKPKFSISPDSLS", "assay": "Whole cell patch clamp of HEK293t cells transfected with Kir6.2 and SUR1", "format": "cell-based", "conditions": "for Difference (%) in current change between first and last switch / ΔI [pA] first switch / ΔI [pA] last switch: 400 nm; for reversal potential: n = 5 recordings; for % block: versus 500 µM tolbutamide in the same experiment, n = 3", "protocol": "HEK293t cells (obtained from Leibniz-Institut DSMZ: #305) were incubated in Dulbecco's Modified Eagle Medium (DMEM) + 10% FBS and used for electrophysiological recordings 24-48 hrs following Lipofectamine transfection with plasmids encoding Kir6.2 (Genbank D50581), rat SUR1 (Genbank L40624) and GFP. Whole cell patch clamp experiments were performed using a standard electrophysiology setup equipped with a HEKA Patch Clamp EPC10 USB amplifier and PatchMaster software (HEKA Electronik). Micropipettes were generated from \"Science Products GB200-F-8P with filament\" pipettes using a vertical puller. Resistance varied between 5-7 MΩ. Bath solution contained in mM: 3 KCl, 118 NaCl, 25 NaHCO3, 2 CaCl2, 1 MgCl2, 10 HEPES (NaOH to pH 7.4). Pipette solution contained in mM: 90 K-gluconate, 10 NaCl, 10 KCl, 1 MgCl2, 10 EGTA, 60 HEPES (KOH to pH 7.3), and the holding potential was -60 mV. Illumination during electrophysiology and UV/Vis experiments was provided by a TILL Photonics Polychrome 5000 monochromator."}, "[1]": {"assay": "Water solubility on dilution from DMSO stock", "format": "physicochemical", "conditions": "kinetic from dmso stock, diluted from a 50 mM stock solution in DMSO"}, "[2]": {"assay": "pKa measurement, absorbance-based platereader assay", "format": "physicochemical", "conditions": "DMSO/buffer mixture (1/1), pH 3.33-6.33, sigmoidal fitting, n = 3 assays", "protocol": "Extinction coefficients were measured on a BMG Labtech Omega Series FLUOstar microplate reader with clear flat-bottom white 96 wellplates by full spectra acquirement in low K^+ external bath buffer (containing in mM: 3 KCl, 118 NaCl, 25 NaHCO3, 2 CaCl2, 1 MgCl2, 10 HEPES; NaOH to pH 7.4). All JB253-containing solutions (dilution series, n = 4: 10 nM; 100 nM; 1 µM; 10 µM; 25 µM; 50 µM) were background substracted and fitted with a linear slope. […] Full absorbance spectra (280-800 nm) were acquired and background subtracted before spectral differences were calculated. The total change of maximal positive and maximal negative difference was calculated and plotted against pH. Sigmoidal fit of the obtained plot gave access to the pKa."}, "[3]": {"conditions": "four dark/400 nm cycles, single cell, ± SEM"}, "[4]": {"conditions": "λ 400 nm, 50 µM JB253, ± SD, n = 3 recordings"}, "[5]": {"conditions": "λ 420 nm, 50 µM JB253, ± SD, n = 3 recordings"}, "[6]": {"conditions": "λ 440 nm, 50 µM JB253, ± SD, n = 3 recordings"}, "[7]": {"conditions": "λ 460 nm, 50 µM JB253, ± SD, n = 3 recordings"}, "[8]": {"conditions": "λ 480 nm, 50 µM JB253, ± SD, n = 3 recordings"}, "[9]": {"conditions": "λ 500 nm, 50 µM JB253, ± SD, n = 3 recordings"}},
  "data": [
    {"compound": "CCN(CC)c1ccc(/N=N/c2ccc(S(=O)(=O)NC(=O)NC3CCCCC3)cc2)cc1", "note": "[JB253, (E)-N-(cyclohexylcarbamoyl)-4-((4-(diethylamino)phenyl)diazenyl)benzenesulfonamide]", "values": [
      {"measurement": "Difference (%) in current change between first and last switch", "setting": "KATP channels; experiment 1, 12 cycles", "result": 34.4, "unit": "%"},
      {"measurement": "ΔI [pA] first switch", "setting": "KATP channels; experiment 1, 12 cycles", "result": 136.5, "unit": "pA"},
      {"measurement": "ΔI [pA] last switch", "setting": "KATP channels; experiment 1, 12 cycles", "result": 89.5, "unit": "pA"},
      {"measurement": "Difference (%) in current change between first and last switch", "setting": "KATP channels; experiment 2, 9 cycles", "result": 3.4, "unit": "%"},
      {"measurement": "ΔI [pA] first switch", "setting": "KATP channels; experiment 2, 9 cycles", "result": 438.8, "unit": "pA"},
      {"measurement": "ΔI [pA] last switch", "setting": "KATP channels; experiment 2, 9 cycles", "result": 423.8, "unit": "pA"},
      {"measurement": "Difference (%) in current change between first and last switch", "setting": "KATP channels; experiment 3, 5 cycles", "result": 19.5, "unit": "%"},
      {"measurement": "ΔI [pA] first switch", "setting": "KATP channels; experiment 3, 5 cycles", "result": 200.0, "unit": "pA"},
      {"measurement": "ΔI [pA] last switch", "setting": "KATP channels; experiment 3, 5 cycles", "result": 161.0, "unit": "pA"},
      {"measurement": "Difference (%) in current change between first and last switch", "setting": "KATP channels; experiment 4, 4 cycles", "result": 2.1, "unit": "%"},
      {"measurement": "ΔI [pA] first switch", "setting": "KATP channels; experiment 4, 4 cycles", "result": 521, "unit": "pA"},
      {"measurement": "ΔI [pA] last switch", "setting": "KATP channels; experiment 4, 4 cycles", "result": 510, "unit": "pA"},
      {"measurement": "wavelength of maximal photoblock of KATP channels", "setting": "KATP channels; HEK293t Kir6.2/SUR1", "result": 460, "unit": "nm"},
      {"measurement": "photoswitching of K^+ currents at wavelengths > 560 nm", "setting": "KATP channels; HEK293t Kir6.2/SUR1, holding potential -60 mV, n = 3 recordings", "result": "unable to photoswitch"},
      {"measurement": "τon", "setting": "KATP channels; block upon exposure to 400 nm", "result": 400, "unit": "ms"},
      {"measurement": "K^+ current amplitude", "setting": "KATP channels; dark state, 50 µM JB253, a fraction of the effect of 500 µM tolbutamide", "result": "partly reduced"},
      {"measurement": "reversal potential", "setting": "KATP channels; dark, ± SEM", "result": "-90.0 ± 1.8", "unit": "mV"},
      {"measurement": "ΔI", "setting": "KATP channels; [3]", "result": "504.8±6.9", "unit": "pA"},
      {"measurement": "τoff", "setting": "KATP channels; [3]", "result": "1472 ± 75", "unit": "ms"},
      {"measurement": "τon", "setting": "KATP channels; [3]", "result": "477 ± 26", "unit": "ms"},
      {"measurement": "reversal potential", "setting": "KATP channels; illuminated, ± SEM", "result": "-87.8 ± 1.6", "unit": "mV"},
      {"measurement": "block relative to that recorded using 500 µM tolbutamide", "setting": "KATP channels; illumination with wavelengths between 400-500 nm, 50 µM JB253", "result": "45-72%"},
      {"measurement": "difference in ΔI [pA] between first and last switch", "setting": "KATP channels; repeated dark/400 nm cycles, mean of all experiments", "result": "14.9 ± 7.6", "unit": "%"},
      {"measurement": "τoff", "setting": "KATP channels; thermal relaxation after light source shut off (400 nm)", "result": 1500, "unit": "ms"},
      {"measurement": "ΔI", "setting": "KATP channels; λ 400 nm, 50 µM JB253, single representative experiment", "result": 216, "unit": "pA"},
      {"measurement": "% block", "setting": "KATP channels; λ 400 nm, 50 µM JB253, ± SD", "result": "44.0±29.6", "unit": "%"},
      {"measurement": "τoff", "setting": "KATP channels; [4]", "result": "2758 ± 745", "unit": "ms"},
      {"measurement": "τon", "setting": "KATP channels; [4]", "result": "1176 ± 385", "unit": "ms"},
      {"measurement": "ΔI", "setting": "KATP channels; λ 420 nm, 50 µM JB253, single representative experiment", "result": 492, "unit": "pA"},
      {"measurement": "% block", "setting": "KATP channels; λ 420 nm, 50 µM JB253, ± SD", "result": "69.4±51.1", "unit": "%"},
      {"measurement": "τoff", "setting": "KATP channels; [5]", "result": "2209 ± 482", "unit": "ms"},
      {"measurement": "τon", "setting": "KATP channels; [5]", "result": "1309 ± 438", "unit": "ms"},
      {"measurement": "ΔI", "setting": "KATP channels; λ 440 nm, 50 µM JB253, single representative experiment", "result": 440, "unit": "pA"},
      {"measurement": "% block", "setting": "KATP channels; λ 440 nm, 50 µM JB253, ± SD", "result": "70.0±44.3", "unit": "%"},
      {"measurement": "τoff", "setting": "KATP channels; [6]", "result": "2295 ± 397", "unit": "ms"},
      {"measurement": "τon", "setting": "KATP channels; [6]", "result": "1246 ± 421", "unit": "ms"},
      {"measurement": "ΔI", "setting": "KATP channels; λ 460 nm, 50 µM JB253, single representative experiment", "result": 481, "unit": "pA"},
      {"measurement": "% block", "setting": "KATP channels; λ 460 nm, 50 µM JB253, ± SD", "result": "72.8±48.1", "unit": "%"},
      {"measurement": "τoff", "setting": "KATP channels; [7]", "result": "1940 ± 322", "unit": "ms"},
      {"measurement": "τon", "setting": "KATP channels; [7]", "result": "1181 ± 447", "unit": "ms"},
      {"measurement": "ΔI", "setting": "KATP channels; λ 480 nm, 50 µM JB253, single representative experiment", "result": 487, "unit": "pA"},
      {"measurement": "% block", "setting": "KATP channels; λ 480 nm, 50 µM JB253, ± SD", "result": "72.4±49.0", "unit": "%"},
      {"measurement": "τoff", "setting": "KATP channels; [8]", "result": "2183 ± 422", "unit": "ms"},
      {"measurement": "τon", "setting": "KATP channels; [8]", "result": "1163 ± 434", "unit": "ms"},
      {"measurement": "ΔI", "setting": "KATP channels; λ 500 nm, 50 µM JB253, single representative experiment", "result": 482, "unit": "pA"},
      {"measurement": "% block", "setting": "KATP channels; λ 500 nm, 50 µM JB253, ± SD", "result": "70.2±49.5", "unit": "%"},
      {"measurement": "τoff", "setting": "KATP channels; [9]", "result": "2002 ± 354", "unit": "ms"},
      {"measurement": "τon", "setting": "KATP channels; [9]", "result": "1244 ± 462", "unit": "ms"},
      {"measurement": "solubility", "setting": "[1]", "result": "≥ 100", "unit": "µM"},
      {"measurement": "pKa", "setting": "[2]", "result": 4.76}
    ]}
  ]
}
